We go through eleven molecules from patent US20050261472A1, “Binding moieties for fibrin” (Dyax Corp., priority 1999, published 2005).

Bridge positions count the residues as written; N and C are the ends. Square brackets hold non-standard residues; d marks the D form. Peptide text beside a SMILES is read from it. hSer = N[C@@H](CCO)C(=O)O Bounds are passed on as bounds.

Broadly, the Kd is the constant that tells how readily two partners part at equilibrium.

For one assay, the target named is T1, DD(E) (Homo sapiens, UniProt P02671+P02675+P02679).
T1 construct: host or cells: purchased fibrinogen clotted with thrombin, digested with plasmin, then purified by ammonium sulfate cuts and Sephacryl S200
T1 sequence (P02671 130-216): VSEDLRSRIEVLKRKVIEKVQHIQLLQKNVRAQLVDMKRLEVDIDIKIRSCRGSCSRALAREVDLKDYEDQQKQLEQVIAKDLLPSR
T1 sequence (P02675 164-491): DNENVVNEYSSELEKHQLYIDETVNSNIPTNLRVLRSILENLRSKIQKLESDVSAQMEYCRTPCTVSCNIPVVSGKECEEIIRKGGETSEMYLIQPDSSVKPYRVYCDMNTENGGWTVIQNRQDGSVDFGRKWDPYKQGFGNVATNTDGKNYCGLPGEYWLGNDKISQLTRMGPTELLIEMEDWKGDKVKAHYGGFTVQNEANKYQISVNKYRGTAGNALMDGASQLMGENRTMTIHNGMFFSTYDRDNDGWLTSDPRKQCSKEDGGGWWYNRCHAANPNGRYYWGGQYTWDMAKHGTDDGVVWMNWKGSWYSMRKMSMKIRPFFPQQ
T1 sequence (P02679 114-432): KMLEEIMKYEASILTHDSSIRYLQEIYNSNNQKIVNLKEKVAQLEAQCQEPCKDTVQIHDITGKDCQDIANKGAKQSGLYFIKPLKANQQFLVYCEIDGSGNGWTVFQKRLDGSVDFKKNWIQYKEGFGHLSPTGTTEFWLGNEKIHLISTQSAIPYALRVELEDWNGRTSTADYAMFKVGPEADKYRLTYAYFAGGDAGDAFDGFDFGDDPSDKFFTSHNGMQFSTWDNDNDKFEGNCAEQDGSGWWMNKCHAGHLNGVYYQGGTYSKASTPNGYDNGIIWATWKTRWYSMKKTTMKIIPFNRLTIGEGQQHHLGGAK
T1 sequence (P02671 36-97): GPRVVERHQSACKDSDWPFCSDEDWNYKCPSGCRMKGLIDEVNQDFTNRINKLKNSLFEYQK
T1 sequence (P02675 45-152): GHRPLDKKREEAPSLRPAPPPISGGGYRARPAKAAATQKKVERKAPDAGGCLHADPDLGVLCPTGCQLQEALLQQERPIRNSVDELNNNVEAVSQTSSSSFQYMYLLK
T1 sequence (P02679 27-88): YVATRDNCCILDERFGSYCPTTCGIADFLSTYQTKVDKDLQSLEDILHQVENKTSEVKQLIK
Briefly: dissociation constant against fibrin-derived polypeptide DD(E). It is filed as binding. To be noted: read-out: Kd DD(E). The protocol:
The soluble fibrin-derived polypeptide DD(E) was prepared following a modification of a published method (Moskoitz and Budzynksi, Biochemistry, 33: 12937-12944 (1994) and references therein). Fibrinogen containing a Factor XIII trace impurity (1 g, Grade L; purchased from American Diagnostica) was dissolved in TBS buffer and dialyzed overnight against TBS containing 5 mM citrate. The fibrinogen concentration was adjusted to 3.0 mg/ml and CaCl2 was added to a concentration of 10 mM. Clotting of the fibrinogen was initiated by the addition of thrombin to 0.5 U/ml and the clot was incubated for 3 hours at 37° C. The clot was cut up with a spatula to release water and to concentrate the clot. The clot pieces were washed twice with TBS.Ca buffer (TBS containing 2 mM CaCl2) and were centrifuged at 4,000×g to compact the clots between washes. The clot material was resuspended in 250 ml TBS containing 25 mM CaCl2 and 2 K.I.U. plasmin per mg fibrin. The clots were digested overnight at 20° C. Undigested clot was removed by pipette, and the supernatant was shaken with 10 ml of Lysine Sepharose (Pharmacia) for 30 minutes and filtered to remove the resin. Aprotinin was added to the filtrate to a concentration of 500 U/μL. Ammonium Sulfate was added to 30% saturation and the precipitated protein was removed by centrifugation. More ammonium sulfate was added to the supernatant to a final concentration of 50% saturation, and the precipitated protein was concentrated by centrifugation. The pellets, containing DD(E), were resuspended in a small volume of buffer (50 mM Tris, 150 mM NaCl, 2 mM CaCl2) (<10 ml) and chromatographed on a Sephacryl S200 (Pharmacia) size exclusion column (5×100 cm) in the same buffer. Fractions of protein eluted from the column were assayed by SDS-PAGE for DD(E). DD(E) contains subunits of 55 kD (Fragment E) and 190 kD (Fragment DD). […]
Dissociation constants were determined against DD(E) as described above.
For `CC(C)C[C@H](NC(=O)[C@@H]1CSSC[C@H](NC(=O)[C@@H]2CCCN2C(=O)[C@@H](N)CCCNC(=N)N)C(=O)N[C@@H](CC(N)=O)C(=O)N[C@@H](Cc2ccc(O)cc2)C(=O)N[C@@H](Cc2ccc(O)cc2)C(=O)NCC(=O)N[C@@H]([C@@H](C)O)C(=O)N1)C(=O)N[C@@H](Cc1c[nH]cn1)C(N)=O` [SEQ ID NO: 16, RPCNYYGTCLH] (H-RPCNYYGTCLH-NH2; disulfide 3-9), the Kd was 4 µM.

For H-DYYGT-NH2 [compound 35], the Kd is greater than 100 µM.

`CC(C)C[C@H](NC(=O)[C@@H]1CSSC[C@H](NC(=O)[C@@H]2CCCN2C(=O)[C@@H](N)CC(C)C)C(=O)N[C@@H](CC(=O)O)C(=O)N[C@@H](Cc2ccc(O)cc2)C(=O)N[C@@H](Cc2ccc(O)cc2)C(=O)NCC(=O)N[C@@H](CCO)C(=O)N1)C(=O)N[C@@H](CC(=O)O)C(N)=O` [SEQ ID NO: 50, LPCDYYGHseCLD] (H-LPCDYYG[hSer]CLD-NH2; disulfide 3-9): the Kd was greater than 500 µM.

As to `CC(C)C[C@H](NC(=O)[C@@H]1CSSC[C@H](NC(=O)[C@@H]2CCCN2C(=O)[C@@H](N)CC(C)C)C(=O)N[C@@H](CO)C(=O)N[C@@H](Cc2ccc(O)cc2)C(=O)N[C@@H](Cc2ccc(O)cc2)C(=O)NCC(=O)N[C@@H]([C@@H](C)O)C(=O)N1)C(=O)N[C@@H](Cc1c[nH]cn1)C(N)=O` [SEQ ID NO: 12, LPCSYYGTCLH] (H-LPCSYYGTCLH-NH2; disulfide 3-9), the Kd was determined as 9.8 µM.

As for `CC(C)C[C@H](NC(=O)[C@@H]1CSSC[C@H](NC(=O)[C@@H]2CCCN2C(=O)[C@@H](N)CC(C)C)C(=O)N[C@@H](CC(=O)O)C(=O)N[C@@H](Cc2ccc(O)cc2)C(=O)N[C@@H](Cc2ccc(O)cc2)C(=O)NCC(=O)N[C@@H](CN)C(=O)N1)C(=O)N[C@@H](CC(=O)O)C(N)=O` [SEQ ID NO: 49, LPCDYYGDprCLD], the Kd is greater than 500 µM.

Turning to `CC(C)C[C@H](NC(=O)[C@@H]1CSSC[C@H](NC(=O)[C@@H]2CCCN2C(=O)[C@@H](N)CC(C)C)C(=O)N[C@@H](CC(=O)O)C(=O)N[C@@H](C)C(=O)N[C@@H](Cc2ccc(O)cc2)C(=O)NCC(=O)N[C@@H]([C@@H](C)O)C(=O)N1)C(=O)N[C@@H](CC(=O)O)C(N)=O` [SEQ ID NO: 43, LPCDAYGTCLD] (H-LPCDAYGTCLD-NH2; disulfide 3-9), the Kd turned out to be 4.5 µM.

On to `CC[C@H](C)[C@H](NC(=O)[C@H](Cc1c[nH]c2ccccc12)NC(=O)[C@@H]1CSSC[C@H](NC(=O)[C@H](CCC(=O)O)NC(=O)[C@@H](N)Cc2c[nH]c3ccccc23)C(=O)N2CCC[C@H]2C(=O)N[C@@H](Cc2ccc(O)cc2)C(=O)NCC(=O)N[C@@H](CC(C)C)C(=O)N1)C(=O)N[C@@H](CCC(N)=O)C(N)=O` [SEQ ID NO: 61, WECPYGLCWIQ] (H-WECPYGLCWIQ-NH2; disulfide 3-8), for which the Kd was 0.94 µM.

For `C[C@@H](O)[C@@H]1NC(=O)CNC(=O)[C@H](Cc2ccc(O)cc2)NC(=O)[C@H](Cc2ccc(O)cc2)NC(=O)[C@H](CC(=O)O)NC(=O)[C@@H](NC(=O)[C@@H]2CCCN2C(=O)[C@@H](N)CCCNC(=N)N)CSSC[C@@H](C(=O)N[C@@H](Cc2ccccc2)C(=O)N[C@@H](CC(=O)O)C(N)=O)NC1=O` [SEQ ID NO: 8, RPCDYYGTCFD] (H-RPCDYYGTCFD-NH2; disulfide 3-9), the Kd came to 3.4 µM.

For `CC[C@H](C)[C@H](NC(=O)[C@H](Cc1c[nH]cn1)NC(=O)[C@@H]1CSSC[C@H](NC(=O)[C@H](Cc2c[nH]cn2)NC(=O)[C@H](Cc2ccccc2)NC(=O)[C@@H](N)Cc2c[nH]c3ccccc23)C(=O)N2CCC[C@H]2C(=O)N[C@@H](Cc2ccc(O)cc2)C(=O)N[C@@H](CC(=O)O)C(=O)N[C@@H](CC(C)C)C(=O)N1)C(=O)N[C@@H](CC(C)C)C(N)=O` [SEQ ID NO: 21, W F H C P Y D L C H I L] (H-WFHCPYDLCHIL-NH2; disulfide 4-9; N-terminus and C-terminus assumed), the Kd stood at 2.63 µM.

Staying with this assay, now noted: sequences of phage isolates from TN10-9 and TN6-6 libraries (Table 5); read-out: Kd DD(E).
NHGCYNSYGVPYCDYS [compound 18]: the Kd amounted to 2.7 µM.

Turning to RFLCYDSYYHWWCSHH [compound 19], the Kd was roughly 10 µM.
